Calls of active or inactive are those of the source.
Key:
[1] = biological target: T1, Mannose-6-phosphate isomerase (Homo sapiens, UniProt P34949); assay: PMI enzyme inhibitors, confirmation, biochemical, fluorescence intensity (AID 1535)
T1 sequence (P34949 whole entry): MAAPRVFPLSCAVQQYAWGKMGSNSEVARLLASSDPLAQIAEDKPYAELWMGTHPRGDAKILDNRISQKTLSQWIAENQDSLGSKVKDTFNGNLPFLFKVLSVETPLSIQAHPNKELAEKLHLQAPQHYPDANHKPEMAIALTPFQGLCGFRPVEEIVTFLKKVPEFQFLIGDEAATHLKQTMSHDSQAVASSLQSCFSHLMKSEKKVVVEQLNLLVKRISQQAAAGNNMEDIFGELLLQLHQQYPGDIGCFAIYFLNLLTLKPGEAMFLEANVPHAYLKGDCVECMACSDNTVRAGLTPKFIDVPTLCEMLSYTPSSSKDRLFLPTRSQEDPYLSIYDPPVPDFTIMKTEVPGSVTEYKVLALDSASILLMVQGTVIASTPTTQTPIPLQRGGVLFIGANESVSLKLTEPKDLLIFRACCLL

[2] = biological target: Phosphomannomutase 2 (Homo sapiens, UniProt O15305); assay: Counter screen SAR assay for PMM2 inhibitors via a fluorescence intensity assay. [Related pubchem assays (depositor defined):AID1545, AID1574]
[3] = biological target: Phosphoethanolamine/phosphocholine phosphatase (Homo sapiens, UniProt Q8TCT1); assay: SAR assay for compounds that inhibit PHOSPHO1. [Related pubchem assays (depositor defined):AID1545, AID1565, AID1574]
[4] = biological target: T2, Alkaline phosphatase, tissue-nonspecific isozyme (Homo sapiens, UniProt P05186); assay: human TNAP enzyme inhibitors, SAR follow-up, biochemical, luminescent, dose response (AID 1056)
T2 sequence (P05186 whole entry): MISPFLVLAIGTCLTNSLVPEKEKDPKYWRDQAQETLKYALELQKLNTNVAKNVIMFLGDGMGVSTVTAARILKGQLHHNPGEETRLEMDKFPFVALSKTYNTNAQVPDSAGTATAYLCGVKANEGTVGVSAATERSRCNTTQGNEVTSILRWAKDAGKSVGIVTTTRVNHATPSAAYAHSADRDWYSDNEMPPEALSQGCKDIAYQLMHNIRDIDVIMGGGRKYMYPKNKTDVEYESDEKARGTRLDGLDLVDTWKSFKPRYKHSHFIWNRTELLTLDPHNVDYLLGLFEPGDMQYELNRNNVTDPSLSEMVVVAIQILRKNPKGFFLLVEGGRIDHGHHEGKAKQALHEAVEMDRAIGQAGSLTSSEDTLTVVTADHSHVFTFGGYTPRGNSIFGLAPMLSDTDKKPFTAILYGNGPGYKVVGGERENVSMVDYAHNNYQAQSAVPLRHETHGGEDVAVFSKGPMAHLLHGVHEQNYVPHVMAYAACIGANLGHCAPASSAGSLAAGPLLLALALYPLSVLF

[5] = biological target: Exodeoxyribonuclease V (Escherichia coli (strain K12), UniProt P04993+P07648+P08394); assay: E. coli RecBCD inhibitors, dose response, counter-screen for AddAB inhibitor project, absorbance, V66 E. coli, mutant T4 phage (AID 492957); format: functional, cell-based, Escherichia coli str. K-12 substr. MG1655
[6] = Counterscreen for AddAB inhibitors: absorbance-based bacterial cell-based high throughput dose response assay for inhibitors of bacterial viability. [Related pubchem assays (depositor defined):AID435030, AID449728, AID449731, AID488942, AID488955, AID488956]; format: functional
[7] = biological target: T3, Protein RecA (Mycobacterium tuberculosis, UniProt P9WHJ3); assay: Fluorescence Cell-Free Homogeneous Dose Retest to Identify Inhibitors of RecA-Intein Splicing Activity. [Related pubchem assays (depositor defined):AID2097, AID2223, AID489010, AID492950]; format: functional
T3 sequence (P9WHJ3 whole entry): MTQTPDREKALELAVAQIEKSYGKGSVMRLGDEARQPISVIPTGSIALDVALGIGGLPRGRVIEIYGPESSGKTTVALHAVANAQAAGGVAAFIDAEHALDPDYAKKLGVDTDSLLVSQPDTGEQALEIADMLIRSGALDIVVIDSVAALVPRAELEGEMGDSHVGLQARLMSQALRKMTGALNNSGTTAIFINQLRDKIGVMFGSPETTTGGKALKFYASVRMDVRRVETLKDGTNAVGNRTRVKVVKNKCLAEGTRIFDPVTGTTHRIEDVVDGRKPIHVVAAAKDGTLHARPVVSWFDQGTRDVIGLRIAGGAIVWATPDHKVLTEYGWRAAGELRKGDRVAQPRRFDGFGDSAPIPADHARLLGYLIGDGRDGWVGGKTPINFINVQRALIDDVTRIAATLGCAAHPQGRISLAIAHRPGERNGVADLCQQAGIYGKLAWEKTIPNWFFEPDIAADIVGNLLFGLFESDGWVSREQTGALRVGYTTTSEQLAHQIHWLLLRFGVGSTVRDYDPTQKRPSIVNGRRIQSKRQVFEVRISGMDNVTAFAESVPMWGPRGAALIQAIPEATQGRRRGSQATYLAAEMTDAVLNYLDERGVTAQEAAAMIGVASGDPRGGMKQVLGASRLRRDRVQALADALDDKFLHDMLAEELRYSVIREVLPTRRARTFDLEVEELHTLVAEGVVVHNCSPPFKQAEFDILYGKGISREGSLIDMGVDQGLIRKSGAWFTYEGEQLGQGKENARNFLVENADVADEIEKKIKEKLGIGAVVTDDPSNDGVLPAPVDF

[8] = biological target: Eukaryotic translation initiation factor 4E (Mus musculus, UniProt P63073); assay: eIF4E–eIF4G protein interaction inhibitors, dose response, biochemical, TR-FRET (AID 855); format: functional;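 note: potency for disrupting eIF4E binding to eIF4GI seen as loss of FRET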
[9] = biological target: T4, Polyadenylate-binding protein 1 (Homo sapiens, UniProt P11940); assay: PABP1 MLLE–PAM2 binding inhibitor potency, dose response, biochemical, fluorescence polarization, FITC-PAM2 peptide (AID 602259); format: functional; conditions: read-out: IC50_Mean
[10] = biological target: Female germline-specific tumor suppressor gld-1 (Caenorhabditis elegans, UniProt Q17339); assay: inhibitors of GLD-1 binding to TGE RNA, dose response, biochemical, fluorescence polarization, C. elegans (AID 2802);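 note: fluorescence polarization of labeled TGE RNA bound by purified gld-1 protein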
[11] = biological target: Protein Rev (Human immunodeficiency virus type 1 group M subtype B (isolate HXB2)(HIV-1), UniProt P04618); assay: inhibitors of Rev binding to RRE RNA, dose response, biochemical, fluorescence polarization, HIV-1 (AID 434976); set-up: species or system Human immunodeficiency virus 1
[12] = biological target: E3 ubiquitin-protein ligase XIAP (Homo sapiens, UniProt P98170); assay: Counter Screen using XIAP-Bir3 for Chemical Antagonists of Bir1/2 domains of IAP-family anti-apoptotic proteins. [Related pubchem assays (depositor defined):AID1018, AID1449, AID1514, AID1638, AID1749, AID1750, AID488957, AID488963]
[13] = biological target: T5, Replicative DNA helicase DnaB (Mycobacterium tuberculosis, UniProt P9WMR3); assay: DnaB intein splicing inhibitors, dose response, biochemical, cell-free fluorescence (AID 449749); format: functional
T5 sequence (P9WMR3 whole entry): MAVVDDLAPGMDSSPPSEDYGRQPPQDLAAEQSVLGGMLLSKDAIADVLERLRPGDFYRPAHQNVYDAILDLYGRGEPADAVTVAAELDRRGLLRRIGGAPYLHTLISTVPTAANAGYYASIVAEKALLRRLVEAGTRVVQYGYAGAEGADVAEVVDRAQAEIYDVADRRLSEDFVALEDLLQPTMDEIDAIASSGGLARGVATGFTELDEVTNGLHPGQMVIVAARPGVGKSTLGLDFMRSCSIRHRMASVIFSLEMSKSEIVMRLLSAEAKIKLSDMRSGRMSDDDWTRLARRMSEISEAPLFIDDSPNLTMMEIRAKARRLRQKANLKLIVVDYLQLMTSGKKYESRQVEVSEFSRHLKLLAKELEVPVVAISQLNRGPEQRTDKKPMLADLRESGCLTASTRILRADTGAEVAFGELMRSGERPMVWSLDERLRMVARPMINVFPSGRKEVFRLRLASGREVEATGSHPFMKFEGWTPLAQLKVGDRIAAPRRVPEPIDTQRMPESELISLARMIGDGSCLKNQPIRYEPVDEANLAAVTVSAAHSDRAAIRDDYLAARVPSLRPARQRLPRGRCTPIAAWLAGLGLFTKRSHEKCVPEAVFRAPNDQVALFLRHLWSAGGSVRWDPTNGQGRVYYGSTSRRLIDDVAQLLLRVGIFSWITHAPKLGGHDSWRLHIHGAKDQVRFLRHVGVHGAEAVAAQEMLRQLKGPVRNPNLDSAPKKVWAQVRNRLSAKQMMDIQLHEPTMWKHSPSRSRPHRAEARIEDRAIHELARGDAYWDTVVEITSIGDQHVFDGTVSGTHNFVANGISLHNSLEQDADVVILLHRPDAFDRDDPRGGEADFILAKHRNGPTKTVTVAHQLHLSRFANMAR

[14] = biological target: T4, Polyadenylate-binding protein 1; assay: PABP1 MLLE–PAM2 interaction inhibitors, dose response, miRNA deadenylation inhibitor project, biochemical, fluorescence polarization, Cy5-PAM2 peptide, secondary (AID 602260); format: functional; conditions: read-out: IC50_Mean
[15] = biological target: Induced myeloid leukemia cell differentiation protein Mcl-1 (Homo sapiens, UniProt Q07820); format: functional
Induced myeloid leukemia cell differentiation protein Mcl-1, sequence (Q07820 whole entry): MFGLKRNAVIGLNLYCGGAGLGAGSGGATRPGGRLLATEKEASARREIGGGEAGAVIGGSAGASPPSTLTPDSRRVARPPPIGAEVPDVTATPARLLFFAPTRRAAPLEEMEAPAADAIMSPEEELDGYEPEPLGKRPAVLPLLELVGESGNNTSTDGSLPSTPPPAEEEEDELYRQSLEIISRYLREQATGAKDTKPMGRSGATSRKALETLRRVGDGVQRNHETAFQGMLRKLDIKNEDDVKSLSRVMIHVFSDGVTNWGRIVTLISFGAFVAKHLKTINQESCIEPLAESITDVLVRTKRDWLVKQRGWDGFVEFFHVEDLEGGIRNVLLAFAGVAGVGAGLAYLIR

T4 sequence (P11940 whole entry): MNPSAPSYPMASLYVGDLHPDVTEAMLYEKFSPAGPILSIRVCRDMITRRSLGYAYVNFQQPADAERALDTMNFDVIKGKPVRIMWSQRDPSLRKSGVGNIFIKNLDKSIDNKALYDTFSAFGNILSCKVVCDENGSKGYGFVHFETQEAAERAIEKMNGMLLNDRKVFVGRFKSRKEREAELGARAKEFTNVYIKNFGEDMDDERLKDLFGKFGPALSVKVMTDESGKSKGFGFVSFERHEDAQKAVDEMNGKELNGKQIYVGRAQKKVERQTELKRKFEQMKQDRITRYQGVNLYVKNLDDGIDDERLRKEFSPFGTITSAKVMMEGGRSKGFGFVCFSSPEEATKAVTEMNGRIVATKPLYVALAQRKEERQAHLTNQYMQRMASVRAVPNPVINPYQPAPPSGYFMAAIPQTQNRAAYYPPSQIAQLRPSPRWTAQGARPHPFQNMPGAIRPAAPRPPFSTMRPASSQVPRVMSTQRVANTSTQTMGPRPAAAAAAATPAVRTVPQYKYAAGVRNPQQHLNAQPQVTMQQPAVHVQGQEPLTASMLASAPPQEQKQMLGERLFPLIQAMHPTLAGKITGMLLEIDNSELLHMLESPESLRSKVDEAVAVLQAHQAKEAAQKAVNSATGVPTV
Phosphoethanolamine/phosphocholine phosphatase, sequence (Q8TCT1 whole entry): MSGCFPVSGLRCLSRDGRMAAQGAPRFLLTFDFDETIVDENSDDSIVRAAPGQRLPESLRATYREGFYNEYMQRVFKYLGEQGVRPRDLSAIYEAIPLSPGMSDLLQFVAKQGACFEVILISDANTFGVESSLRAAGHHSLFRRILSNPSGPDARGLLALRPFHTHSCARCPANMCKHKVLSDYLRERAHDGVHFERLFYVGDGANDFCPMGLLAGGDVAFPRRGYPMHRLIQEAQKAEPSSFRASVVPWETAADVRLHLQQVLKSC
Phosphomannomutase 2, sequence (O15305 whole entry): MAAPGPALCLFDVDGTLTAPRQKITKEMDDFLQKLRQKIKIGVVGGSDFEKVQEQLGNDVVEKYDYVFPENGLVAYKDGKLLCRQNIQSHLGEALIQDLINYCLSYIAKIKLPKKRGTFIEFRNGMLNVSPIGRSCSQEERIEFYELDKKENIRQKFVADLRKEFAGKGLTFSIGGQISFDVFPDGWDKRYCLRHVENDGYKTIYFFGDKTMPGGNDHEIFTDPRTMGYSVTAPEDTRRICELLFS
Exodeoxyribonuclease V, sequence (P04993 whole entry): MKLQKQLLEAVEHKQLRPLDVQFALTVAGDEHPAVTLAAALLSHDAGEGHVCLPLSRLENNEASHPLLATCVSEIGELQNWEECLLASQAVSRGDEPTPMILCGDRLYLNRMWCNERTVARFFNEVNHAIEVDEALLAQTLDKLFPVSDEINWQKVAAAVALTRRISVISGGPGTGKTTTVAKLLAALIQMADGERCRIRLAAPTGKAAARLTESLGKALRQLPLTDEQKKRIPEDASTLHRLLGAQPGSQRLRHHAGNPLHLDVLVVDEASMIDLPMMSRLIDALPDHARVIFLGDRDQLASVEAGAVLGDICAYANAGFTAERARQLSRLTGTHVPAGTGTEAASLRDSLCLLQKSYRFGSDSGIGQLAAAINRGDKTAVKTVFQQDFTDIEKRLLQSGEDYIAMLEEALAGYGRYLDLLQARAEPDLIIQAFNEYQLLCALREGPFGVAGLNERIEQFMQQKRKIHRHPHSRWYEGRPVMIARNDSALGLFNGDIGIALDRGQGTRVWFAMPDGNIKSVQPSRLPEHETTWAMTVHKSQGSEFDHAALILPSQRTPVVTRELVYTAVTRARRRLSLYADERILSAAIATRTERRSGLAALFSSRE
Exodeoxyribonuclease V, sequence (P07648 whole entry): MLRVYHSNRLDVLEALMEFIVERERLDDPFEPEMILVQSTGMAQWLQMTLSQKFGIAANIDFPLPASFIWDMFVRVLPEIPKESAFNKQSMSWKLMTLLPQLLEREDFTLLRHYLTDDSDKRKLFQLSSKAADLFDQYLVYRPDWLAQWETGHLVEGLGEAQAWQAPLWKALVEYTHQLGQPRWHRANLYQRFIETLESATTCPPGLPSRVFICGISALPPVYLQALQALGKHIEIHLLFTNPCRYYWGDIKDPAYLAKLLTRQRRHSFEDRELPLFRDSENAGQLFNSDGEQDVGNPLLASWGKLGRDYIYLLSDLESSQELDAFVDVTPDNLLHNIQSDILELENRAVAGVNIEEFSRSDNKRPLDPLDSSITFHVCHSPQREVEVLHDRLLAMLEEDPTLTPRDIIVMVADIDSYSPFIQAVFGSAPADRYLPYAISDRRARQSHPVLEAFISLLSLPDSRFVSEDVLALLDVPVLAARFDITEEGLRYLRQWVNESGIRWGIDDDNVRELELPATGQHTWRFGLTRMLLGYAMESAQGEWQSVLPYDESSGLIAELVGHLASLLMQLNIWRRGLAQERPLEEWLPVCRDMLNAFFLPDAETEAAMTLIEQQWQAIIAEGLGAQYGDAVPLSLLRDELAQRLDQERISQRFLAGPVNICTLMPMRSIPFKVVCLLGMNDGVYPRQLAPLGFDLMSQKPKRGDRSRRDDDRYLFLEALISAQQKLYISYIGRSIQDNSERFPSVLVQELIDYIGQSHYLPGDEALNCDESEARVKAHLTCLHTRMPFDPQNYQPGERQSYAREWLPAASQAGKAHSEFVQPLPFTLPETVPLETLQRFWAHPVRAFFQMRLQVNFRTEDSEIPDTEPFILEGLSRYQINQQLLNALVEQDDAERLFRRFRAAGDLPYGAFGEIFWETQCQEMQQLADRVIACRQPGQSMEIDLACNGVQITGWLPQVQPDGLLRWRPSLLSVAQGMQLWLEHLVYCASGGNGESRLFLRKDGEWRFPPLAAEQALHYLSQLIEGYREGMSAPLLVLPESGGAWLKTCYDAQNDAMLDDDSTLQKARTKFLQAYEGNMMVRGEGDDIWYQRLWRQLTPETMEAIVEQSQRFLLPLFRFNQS
Exodeoxyribonuclease V, sequence (P08394 whole entry): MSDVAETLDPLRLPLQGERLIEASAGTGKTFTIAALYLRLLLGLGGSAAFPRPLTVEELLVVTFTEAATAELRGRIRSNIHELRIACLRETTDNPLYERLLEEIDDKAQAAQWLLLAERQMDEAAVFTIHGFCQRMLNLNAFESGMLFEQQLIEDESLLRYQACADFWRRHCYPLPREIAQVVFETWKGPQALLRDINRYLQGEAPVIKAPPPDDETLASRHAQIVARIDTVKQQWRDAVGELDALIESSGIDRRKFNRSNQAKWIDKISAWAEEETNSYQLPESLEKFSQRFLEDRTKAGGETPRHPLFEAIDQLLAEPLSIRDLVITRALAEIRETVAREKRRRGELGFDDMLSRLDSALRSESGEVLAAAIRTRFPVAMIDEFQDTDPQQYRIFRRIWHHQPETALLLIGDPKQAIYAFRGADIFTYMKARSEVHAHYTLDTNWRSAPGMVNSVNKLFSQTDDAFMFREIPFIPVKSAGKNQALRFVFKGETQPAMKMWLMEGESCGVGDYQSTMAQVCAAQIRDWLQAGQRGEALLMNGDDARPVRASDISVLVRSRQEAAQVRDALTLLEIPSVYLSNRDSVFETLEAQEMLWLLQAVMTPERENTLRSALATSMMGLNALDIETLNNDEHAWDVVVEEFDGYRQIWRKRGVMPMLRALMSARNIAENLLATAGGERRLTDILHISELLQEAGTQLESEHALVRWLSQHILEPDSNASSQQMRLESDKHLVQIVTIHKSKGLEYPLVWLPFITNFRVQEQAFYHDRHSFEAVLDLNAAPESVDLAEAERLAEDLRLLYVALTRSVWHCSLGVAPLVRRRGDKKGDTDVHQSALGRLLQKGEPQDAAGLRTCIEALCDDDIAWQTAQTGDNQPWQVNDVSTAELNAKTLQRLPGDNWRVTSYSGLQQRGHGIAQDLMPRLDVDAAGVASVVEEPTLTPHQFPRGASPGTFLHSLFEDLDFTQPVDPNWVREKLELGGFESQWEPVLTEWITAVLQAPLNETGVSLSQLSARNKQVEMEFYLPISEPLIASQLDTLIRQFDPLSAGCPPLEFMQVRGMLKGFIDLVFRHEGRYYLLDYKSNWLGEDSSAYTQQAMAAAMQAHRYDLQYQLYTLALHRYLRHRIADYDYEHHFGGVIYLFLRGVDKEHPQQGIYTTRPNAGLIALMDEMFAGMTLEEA
E3 ubiquitin-protein ligase XIAP, sequence (P98170 whole entry): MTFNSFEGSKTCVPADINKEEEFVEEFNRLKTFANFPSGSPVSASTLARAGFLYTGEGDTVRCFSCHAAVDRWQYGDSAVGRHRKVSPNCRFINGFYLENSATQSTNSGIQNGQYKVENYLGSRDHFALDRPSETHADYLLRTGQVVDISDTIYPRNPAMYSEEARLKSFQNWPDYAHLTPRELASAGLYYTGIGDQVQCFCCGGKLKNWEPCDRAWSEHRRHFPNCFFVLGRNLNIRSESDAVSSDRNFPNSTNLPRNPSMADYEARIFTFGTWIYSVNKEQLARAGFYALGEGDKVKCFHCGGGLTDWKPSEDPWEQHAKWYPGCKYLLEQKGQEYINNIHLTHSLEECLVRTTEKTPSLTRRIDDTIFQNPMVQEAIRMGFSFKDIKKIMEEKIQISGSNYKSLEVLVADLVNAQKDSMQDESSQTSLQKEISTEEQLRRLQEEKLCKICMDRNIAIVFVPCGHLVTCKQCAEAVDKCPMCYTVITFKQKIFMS
Protein Rev, sequence (P04618 whole entry): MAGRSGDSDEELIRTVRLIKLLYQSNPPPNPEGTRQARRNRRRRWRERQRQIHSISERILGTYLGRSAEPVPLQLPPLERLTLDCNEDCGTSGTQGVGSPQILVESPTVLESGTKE

CCN(CC)S(=O)(=O)c1cccc(-n2sc3ccccc3c2=O)c1
IC50 [1]: 61.9 µM (active)
IC50 [2]: > 100 µM (inactive)
IC50 [3]: 555 nM (active)
IC50 [4]: > 100 µM (inactive)

Cc1ccc(-n2sc3c4c(ccc3c2=O)C(=O)c2ccccc2C4=O)cc1
IC50 [1]: > 50 µM (inactive)
IC50 [2]: > 100 µM (inactive)
IC50 [3]: 2020 nM (inactive)

CC(=O)N(/N=C/c1ccc([N+](=O)[O-])o1)c1nc2ccccc2c(=O)n1-c1ccccc1
IC50 [5]: > 119 µM (inactive)
IC50 [6]: 45.9 µM (inactive)

Nc1ccc(O)c2c1C(=O)c1ccccc1C2=O
EC50 [7]: 39 µM (active)
IC50 [8]: 25.7 µM (active)
IC50 [9]: 24.3 µM (inactive)
IC50 [10]: 3.05 µM (active)
IC50 [11]: > 75.4 µM (not active)
IC50 [12]: < 313 nM (active)
AC50 [13]: 79.2 µM (active)
IC50 [14]: > 66 µM (inactive)
IC50 [15]: 4.35 µM (active)
